Laboratory results from the METLIN SMRT retention time set (Domingo-Almenara et al. 2019).

Assay: gradient 5% acetonitrile 3 min, to 50% in 2 min, to 85% in 15 min, held 3 min, 100 µL/min
Details: column: Zorbax Extend-C18 2.1 x 50 mm; eluents: water / acetonitrile, 0.1% formic acid
Procedure, shortened: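 Pure standards were run in mixtures of ~100 molecules by HPLC coupled to a quadrupole time-of-flight mass spectrometer. The column was a Zorbax Extend-C18 (2.1 × 50 mm, 1.8 μm) at 100 μL/min, with water and acetonitrile each containing 0.1% formic acid, in positive and negative ionization mode. Dead and dwell volumes were 40 μL and 900 μL. Retention time was taken from computationally picked adduct peaks, each manually inspected, with data collected over 3 months.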

Row | SMILES | RP-LC retention time
1 | CN(Cc1ccccc1)C(=O)c1cn2ccncc2n1 | 678 s
2 | Cc1ccc(-c2nc(NC(=O)c3cc4ccccc4o3)sc2C)cc1 | 1220 s
3 | Cc1cccc(-n2c(=O)c3c(cc(C)n3C)n(CC(=O)Nc3cccc(C#N)c3)c2=O)c1 | 846 s
4 | O=c1cc(CN2CCN(c3ncccn3)CC2)nc2sccn12 | 542 s
5 | O=C(NCc1ccc(F)cc1)c1ccc2c(c1)nc1n2CCN(c2ccccc2)C1=O | 760 s
6 | COC(=O)c1c(C)[nH]c(C(=O)N2CCC(CC(=O)NCc3ccc(SC)cc3)CC2)c1C | 774 s
7 | CC(C)(N)c1ncc(-c2ccc(OC(F)(F)F)cc2)[nH]1 | 693 s
8 | COc1cc2c(cc1OC)[C@@H](C(=O)Nc1ccc(F)cc1)[C@@H]1CCCCN1C2=O | 773 s
9 | O=C(NCCc1cccs1)C1CN(S(=O)(=O)C2CC2)CC12CCCCC2 (stereo not drawn) | 934 s
10 | Cc1ccc(N2CN(Cc3ccccc3)S(=O)(=O)c3cccnc32)cc1 | 1130 s
11 | Cc1ccc(-c2cn3ccn(-c4ccc(F)c(F)c4)c(=O)c3n2)c(C)c1 | 924 s
12 | O=C(NCc1cccc(Cl)c1)c1cccn1-c1cccnc1 | 749 s
13 | O=C(Nc1ccc(C2=NCCCN2)cc1)Nc1ccc(C2=NCCCN2)cc1 | 581 s
14 | CCOC(=O)C(=O)Nc1c(C(=O)Nc2cccc(Cl)c2)oc2ccccc12 | 1090 s
15 | COCc1cnc2c(c1SCc1cccc(F)c1)c(=O)n(C)c(=O)n2C | 960 s
16 | O=C(NCc1ccccc1Br)c1ccc(-c2cccnc2)nc1 | 697 s
17 | Cc1ccc(Nc2c(-c3ccccc3)nc3ncccn23)c(C)c1 | 786 s
18 | CCN1CCC2(CC1)CC(c1nnc(C)o1)N(CCc1ccccc1)C2 (stereo not drawn) | 550 s
19 | CCN1CCN(c2ccc(-c3ccc(OC)c(S(=O)(=O)N4CCCC4)c3)nn2)CC1 | 606 s
20 | Cc1cccc(NS(=O)(=O)c2cc3n(c2)CCCNC3=O)c1C | 658 s

The remaining lines, values ahead:

Row | RP-LC retention time | SMILES
21 | 739 s | CCOc1ccccc1CNC(=O)Cc1cn(C)c2ncccc12
22 | 566 s | Cc1nnc2n1CCC(N(C)C(=O)c1ccsc1)CC2 (stereo not drawn)
23 | 800 s | CCc1nnc([C@@H]2CC(F)(F)CN2C(=O)COc2ccc(F)cc2)o1
24 | 1070 s | Cc1ccc(-c2nnc(Cc3nc(-c4ccc5c(c4)OCO5)no3)o2)cc1C
25 | 895 s | CCCn1cc(C(=O)Nc2ccc(N3CCOCC3)cc2)c2cccnc21
26 | 583 s | COc1ccccc1-c1[nH]ncc1CN1C[C@@H]2CCN(S(C)(=O)=O)C[C@]2(CF)C1
27 | 753 s | O=C(CSc1nnc(COc2ccccc2)o1)NCc1ccco1
28 | 973 s | CC(C)N1C(=O)c2cccnc2Sc2cc(NC(=O)c3cc(Cl)ccc3F)ccc21
29 | 715 s | CC1CCN(c2ncc3c(n2)CCC(C(=O)NCc2ccc(N4CCOCC4)cc2)C3)CC1 (stereo not drawn)
30 | 785 s | O=C(NCCOc1ccc2c(c1)OCO2)c1ccccc1Cl
31 | 558 s | Cc1nnc2n1CCN(C(=O)c1n[nH]c3ccccc13)C2
32 | 1220 s | CCN1C(=O)COc2ccc(-c3noc(-c4ccc(Cl)cc4)n3)cc21
33 | 695 s | Cc1ccc2nc(C(=O)NCc3cc(F)cc(F)c3)cn2c1
34 | 773 s | Cc1ccccc1S(=O)(=O)N1CCC(n2cnnc2-c2ccccc2)CC1
35 | 636 s | CCNc1nc(C)cc(N2CCN(C(=O)Nc3ccccc3)CC2)n1
36 | 581 s | CCc1ccc(NC(=O)N2CCc3[nH]cnc3C2c2ccncc2)cc1 (stereo not drawn)
37 | 946 s | COc1ccc(Cl)cc1C(=O)Nc1ccc2c(c1)Sc1ncccc1C(=O)N2C
38 | 1070 s | CCc1ccc(-c2ccc(-n3nc(C)c(S(=O)(=O)N4CCOCC4)c3C)nn2)cc1
